In patent publication US20030229140A1, “Herbal molecule as potential anti-leukemic drug” (priority 2002, published 2003):
Read-outs that look alike come from different tables or passages of the source.

What was measured:
[1] = tested on: AML patient's PBMC; assay: Incubation of AML patient's PBMC with CA, viable cell count; assay type: cell-based, human
Procedure: Whole blood (10 ml each) was drawn from previously diagnosed myeloid leukemic patients, one patient was diagnosed as AML and the other one was diagnosed as CML. Mononuclear cells were separated by Ficoll/hypaque density gradient centrifugation. PBMC (1×10^5-2×10^6/ml) of myeloid leukemia patients were incubated with varied concentrations of CA for 48 hours at 37° C. in 5% CO2. Cells were then washed and counted for viability.

[2] = tested on: CML patient's PBMC; assay: Incubation of CML patient's PBMC (leukemic cells) with CA/PCQ, viable cell count; assay type: cell-based, human
Procedure: Whole blood (10 ml each) was drawn from previously diagnosed myeloid leukemic patients, one patient was diagnosed as AML and the other one was diagnosed as CML. Mononuclear cells were separated by Ficoll/hypaque density gradient centrifugation. […] Cells were then washed and counted for viability.

[3] = tested on: Promonocytic cell line (U937); assay: Incubation of CD33+ promonocytic cell line U937 with CA/PCQ, viable cell count; assay type: cell-based; conditions: Homo sapiens; for inhibition at 25 µg/mL: U937, 25.0 μg/ml; for inhibition at 50 µg/mL: U937, 50.0 μg/ml; for inhibition at 100 µg/mL: U937, 100.0 μg/ml
Procedure: Culture of Promonocytic cell line U937. […] This cell line is CD33^+. Incubation of CD33^+ cell line U937 with CA. […] Cells were then washed and counted for viability.

[4] = U-937, 24 h, 1 day, 1 × 10^5 cells per ml per well, read-out: Percentage inhibition of Cell Growth
[5] = U-937, 48 h, 2 days, 1 × 10^5 cells per ml per well, read-out: Percentage inhibition of Cell Growth
[6] = U-937, 72 h, 3 days, 1 × 10^5 cells per ml per well, read-out: Percentage inhibition of Cell Growth
[7] = U-937, 72 h, 3 days, 2×10^5 cells per ml per well, read-out: % Inhibition of cell growth (After 3 days of incubation)

**Q.** How did the inhibition at 20 µg/mL ([1]; Homo sapiens, AML patient's PBMC, 20 μg/ml, 48 hr, 1 × 10^5 cells/ml/well, read-out: Percent inhibition of cell growth after 48 hr of incubation) turn out when `O=C(/C=C/c1ccc(O)c(O)c1)O[C@@H]1C[C@](O)(C(=O)O)C[C@@H](O)[C@H]1O` (single isomer, unassigned) [CA, chlorogenic acid or 3-Caffeoyl quinic acid] was run?
**A.** 9.5%

**Q.** What about the inhibition at 50 µg/mL ([1]; Homo sapiens, AML patient's PBMC, 50 μg/ml, 48 hr, 1 × 10^5 cells/ml/well, read-out: Percent inhibition of cell growth after 48 hr of incubation) of the same compound?
**A.** 16.6%

**Q.** And the inhibition at 100 µg/mL ([1]; Homo sapiens, AML patient's PBMC, 100 μg/ml, 48 hr, 1 × 10^5 cells/ml/well, read-out: Percent inhibition of cell growth after 48 hr of incubation)?
**A.** 73.8%

**Q.** And the inhibition at 500 µg/mL ([1]; Homo sapiens, AML patient's PBMC, 500 μg/ml, 48 hr, 1 × 10^5 cells/ml/well, read-out: Percent inhibition of cell growth after 48 hr of incubation)?
**A.** 85.7%

**Q.** What about the “destruction of cells (in words)” value ([1]; PBMC of myeloid leukemia patients (AML)) of the same compound?
**A.** destroyed

**Q.** And the “growth inhibition of leukemic cell lines” value ([2]; CML leukemic cells, 2×10^6/ml/well, 25 μg/ml of CA)?
**A.** up to 2.38

**Q.** What about the “destruction of cells (in words)” value ([2]; CML patient's leukemic cells) of the same compound?
**A.** destroyed

**Q.** What about the inhibition at 50 µg/mL ([2]; Homo sapiens, 24 h, CML patient's PBMC, 50.0 μg/ml, 1 day, 1 × 10^5 cells per ml per well, read-out: Percentage inhibition of Cell Growth) of the same compound?
**A.** 4.76%

**Q.** What about the inhibition at 100 µg/mL ([2]; Homo sapiens, 24 h, CML patient's PBMC, 100.0 μg/ml, 1 day, 1 × 10^5 cells per ml per well, read-out: Percentage inhibition of Cell Growth) of the same compound?
**A.** 9.52%

**Q.** What about the inhibition at 50 µg/mL ([2]; Homo sapiens, 48 h, CML patient's PBMC, 50.0 μg/ml, 2 days, 1 × 10^5 cells per ml per well, read-out: Percentage inhibition of Cell Growth) of the same compound?
**A.** 22.2%

**Q.** And the inhibition at 100 µg/mL ([2]; Homo sapiens, 48 h, CML patient's PBMC, 100.0 μg/ml, 2 days, 1 × 10^5 cells per ml per well, read-out: Percentage inhibition of Cell Growth)?
**A.** 45%

**Q.** What about the inhibition at 50 µg/mL ([2]; Homo sapiens, 72 h, CML patient's PBMC, 50.0 μg/ml, 3 days, 1 × 10^5 cells per ml per well, read-out: Percentage inhibition of Cell Growth) of the same compound?
**A.** 30%

**Q.** And the inhibition at 100 µg/mL ([2]; Homo sapiens, 72 h, CML patient's PBMC, 100.0 μg/ml, 3 days, 1 × 10^5 cells per ml per well, read-out: Percentage inhibition of Cell Growth)?
**A.** 55.6%

**Q.** What about the inhibition at 25 µg/mL ([2]; Homo sapiens, PBMC, 72 h, CML patient's leukemic cells, 25.0 μg/ml, 3 days, 2×10^5 cells per ml per well, read-out: % Inhibition of cell growth (After 3 days of incubation)) of the same compound?
**A.** 2.38%

**Q.** What about the inhibition at 50 µg/mL ([2]; Homo sapiens, PBMC, 72 h, CML patient's leukemic cells, 50.0 μg/ml, 3 days, 2×10^5 cells per ml per well, read-out: % Inhibition of cell growth (After 3 days of incubation)) of the same compound?
**A.** 4.67%

**Q.** What about the inhibition at 20 µg/mL ([2]; Homo sapiens, CML patient's PBMC, 20 μg/ml, 48 hr, 1 × 10^5 cells/ml/well, read-out: Percent inhibition of cell growth after 48 hr of incubation) of the same compound?
**A.** 5.8%

**Q.** What about the inhibition at 50 µg/mL ([2]; Homo sapiens, CML patient's PBMC, 50 μg/ml, 48 hr, 1 × 10^5 cells/ml/well, read-out: Percent inhibition of cell growth after 48 hr of incubation) of the same compound?
**A.** 10.3%

**Q.** And the inhibition at 100 µg/mL ([2]; Homo sapiens, CML patient's PBMC, 100 μg/ml, 48 hr, 1 × 10^5 cells/ml/well, read-out: Percent inhibition of cell growth after 48 hr of incubation)?
**A.** 22.5%

**Q.** And the inhibition at 500 µg/mL ([2]; Homo sapiens, CML patient's PBMC, 500 μg/ml, 48 hr, 1 × 10^5 cells/ml/well, read-out: Percent inhibition of cell growth after 48 hr of incubation)?
**A.** 32.3%

**Q.** What about the inhibition at 10 µg/mL ([3]; U-937, 24 h, U937, 10.0 μg/ml, 1 day, 1 × 10^5 cells per ml per well, read-out: Percentage inhibition of Cell Growth) of the same compound?
**A.** 8.33%

**Q.** What about the inhibition at 25 µg/mL [3, 4] of the same compound?
**A.** 16.7%

**Q.** And the inhibition at 50 µg/mL [3, 4]?
**A.** 25%

**Q.** What about the inhibition at 100 µg/mL [3, 4] of the same compound?
**A.** 45.8%

**Q.** What about the inhibition at 10 µg/mL ([3]; U-937, 48 h, U937, 10.0 μg/ml, 2 days, 1 × 10^5 cells per ml per well, read-out: Percentage inhibition of Cell Growth) of the same compound?
**A.** 44%

**Q.** And the inhibition at 25 µg/mL [3, 5]?
**A.** 52%

**Q.** And the inhibition at 50 µg/mL [3, 5]?
**A.** 64%

**Q.** What about the inhibition at 100 µg/mL [3, 5] of the same compound?
**A.** 96%

**Q.** And the inhibition at 10 µg/mL ([3]; U-937, 72 h, U937, 10.0 μg/ml, 3 days, 1 × 10^5 cells per ml per well, read-out: Percentage inhibition of Cell Growth)?
**A.** 57.1%

**Q.** What about the inhibition at 25 µg/mL [3, 6] of the same compound?
**A.** 71.4%

**Q.** What about the inhibition at 25 µg/mL [3, 7] of the same compound?
**A.** 16.7%

**Q.** What about the inhibition at 50 µg/mL [3, 6] of the same compound?
**A.** 89.3%

**Q.** And the inhibition at 50 µg/mL [3, 7]?
**A.** 25%

**Q.** What about the inhibition at 100 µg/mL [3, 6] of the same compound?
**A.** 100%

**Q.** What about the inhibition at 10 µg/mL ([3]; U-937, U937, 10 μg/ml, 48 hr, 1 × 10^5 cells/ml/well, read-out: Percent inhibition of cell growth after 48 hr of incubation) of the same compound?
**A.** 25%

**Q.** And the inhibition at 15 µg/mL ([3]; U-937, U937, 15 μg/ml, 48 hr, 1 × 10^5 cells/ml/well, read-out: Percent inhibition of cell growth after 48 hr of incubation)?
**A.** 43.7%
